Laboratory results from US20020040027A1, “Method for the prevention of the reinfestation of warm-blooded animals by ectoparasites” (priority 1996, published 2002).

system: cat fleas [Ctenocephalides felis]; assay: Flea control by oral administration of the active ingredient to the host animal (cats); type: in vivo; conditions: cats infected with 100 cat fleas, treated orally on day 0 with 50 mg/kg of body weight (capsule); after 45 days
Experimental: Flea control by oral administration of the active ingredient to the host animal 20 cats with the proven ability permanently to maintain a flea population are divided into 6 groups: 5 groups each being composed of 3 or 4 animals and a sixth group, which serves as the control group, being composed of 2 animals. Each of the cats is infected with 100 cat fleas [Ctenocephalides felis]. The cats of the 5 groups are treated orally on day 0 with 50 mg of active ingredient per kg of body weight. The active ingredient is administered in the form of a capsule. The control group remains untreated. […] The eggs are counted and placed on a medium suitable for the growth of larvae and incubated. The number of pupae and fully grown fleas that develop is determined.

Q: `CC1(C)OCC(COc2ccc(Oc3cccc(F)c3)cc2)O1` (stereo not shown) [2-dimethyl-4-[4-(3-fluorophenoxy)-phenoxymethyl]-1,3-dioxolane] was tested. Which “inhibition of the development of fleas” value did it give?
A: 100%

Q: `CC(C)C1OCC(COc2ccc(Oc3cc(F)cc(F)c3)cc2)O1` (stereo not shown) [4-[4-(3,5-difluorophenoxy)-phenoxymethyl]-2-isopropyl-1,3-dioxolane] was tested. Which “inhibition of the development of fleas” value did it give?
A: 100%

Q: Which “inhibition of the development of fleas” value does the source give for `CCC1OCC(COc2ccc(Oc3cccc(F)c3)cc2)O1` (stereo not shown) [compound 3, 2-ethyl-4-[4-(3-fluorophenoxy)-phenoxymethyl]-1,3-dioxolane] here?
A: 100%

Q: With `CC1(C)OCC(COc2ccc(Oc3cc(F)cc(F)c3)cc2)O1` (stereo not shown) [2-dimethyl-4-[4-(3,5-difluorophenoxy)-phenoxymethyl]-1,3-dioxolane] as the compound, how does the “inhibition of the development of fleas” value read?
A: 100%

system: Amblyomma hebraeum; assay: Tick control by subcutaneous administration of the active ingredient to the host animal (chicks); type: in vivo; conditions: subcutaneously injected dose of 3 mg/kg of body weight, nymphs moulted from collected larvae, treated vs untreated chicks
Experimental: Tick control by subcutaneous administration of the active ingredient to the host animal
13 day-old chicks of a fattened breed are infected with about 200 larvae of the tick species Amblyomma hebraeum and placed in pairs in cages. After three days, the chicks are injected subcutaneously with the active ingredient in an aqueous suspension. Within 2 to 6 days of the treatment, i.e. 5 to 9 days after infection, the replete tick larvae fall from the chicks can be collected and counted. The activity of the test compounds is calculated on the basis of the number of replete larvae on treated and untreated chicks in accordance with the formula [formula]
where Ct is the average number of larvae from treated chicks and Cu is the average number of larvae from untreated chicks.
In order to determine this type of activity, the replete larvae are kept, separated into treatment groups, in an incubator until all the larvae collected from untreated chicks have moulted. The activity is calculated using the above mentioned formula, with the average number of nymphs being used instead of the average number of larvae.
Reduction of more than + 80 % can be regarded as systemic action.

Q: `c1ccc(Oc2ccc(OCC3COC(C4CC4)O3)cc2)cc1` (stereo not shown) [compound 2, 2-cyclopropyl-4-[4-(phenoxy)-phenoxymethyl]-1,3-dioxolane] was tested. Which “% reduction nymphs” value did it give?
A: 83%

Q: How did the “% reduction nymphs” value turn out when `CCC1OCC(COc2ccc(Oc3cccc(F)c3)cc2)O1` (stereo not shown) [compound 3, 2-ethyl-4-[4-(3-fluorophenoxy)-phenoxymethyl]-1,3-dioxolane] was run?
A: 80%

Q: How did the “% reduction nymphs” value turn out when `CCC1OCC(C)(COc2ccc(Oc3cccc(F)c3)cc2)O1` (stereo not shown) [compound 1, 2-ethyl-4-[4-(3-fluorophenoxy)-phenoxymethyl]-4-methyl-1,3-dioxolane] was run?
A: 83%

same assay, conditions: subcutaneously injected dose of 3 mg/kg of body weight, replete larvae, treated vs untreated chicks

Q: `c1ccc(Oc2ccc(OCC3COC(C4CC4)O3)cc2)cc1` (stereo not shown) [compound 2, 2-cyclopropyl-4-[4-(phenoxy)-phenoxymethyl]-1,3-dioxolane] was tested. Which “% reduction larvae” value did it give?
A: 82%

Q: For `CCC1OCC(COc2ccc(Oc3cccc(F)c3)cc2)O1` (stereo not shown) [compound 3, 2-ethyl-4-[4-(3-fluorophenoxy)-phenoxymethyl]-1,3-dioxolane], which “% reduction larvae” value is on record?
A: 78%

Q: `CCC1OCC(C)(COc2ccc(Oc3cccc(F)c3)cc2)O1` (stereo not shown) [compound 1, 2-ethyl-4-[4-(3-fluorophenoxy)-phenoxymethyl]-4-methyl-1,3-dioxolane] was tested. Which “% reduction larvae” value did it give?
A: 83%
